The text below walks through data of patent US20120251495A1, “PTERIN BASED THERAPIES FOR INFLAMMATORY CONDITIONS” (priority 2008, published 2012).

Experiment [1] deals with plasma cytokines. As to the kind of experiment: Plasma cytokine levels (multiplex and single ELISA kits), 2nd experiment. To be noted: for IL-5: limit of detection 3.0; for IL-6: limit of detection 3.9; for IL-1β: limit of detection 4.1; for IL-10: limit of detection 24.6. Format: in vivo, athymic nude mice. As to the method:
Cytokine levels in EDTA plasma from the mice in the 2nd experiment were measured at the UCSD Core Laboratory (San Diego, Calif.) using a multiplex assay kit for IL-1β, IL-2, IL-4, IL-5, IL-10, IL-12, IFN-γ, TNF-α and single ELISA kits for IL-6 and TGF-β1 by R&D Systems. […] For both the 1st and 2nd experiments, those measured cytokine values falling below the limits of detection were set to the higher assay limit for the purposes of the subsequent statistical analyses, and recorded as n.d. (not detectable) in Tables 1 through 3.
For orientation: In an ELISA, binding on a coated surface is turned into a signal by an enzyme label.

In experiment [2] the test system is MDA-MB-231 xenograph tumors. As to the kind of experiment: Combined analysis of DCP + control mice: Day 42,43 relative tumor volume and DCP/APCP. To be noted: 25 mg/(kg day); Day 42,43 relative tumor volume; combined data. Format: in vivo, nude mice. The protocol:
Standard ANOVA models for group effects, curve fitting, and stepwise regression analyses were carried out using SPSS Graduate Pack 15.0 for Windows (2006), with p<0.05 used to determine significance.
Table 7 gives the plasma cytokine and relative tumor volume Spearman rank order correlations for the 12 DCP+ control mice (Control [n=3; from 1st experiment]; 23 mg/(kg d) DCP [n=5; from 2nd experiment]; and 69 mg/(kg d) DCP [n=4; from 2nd experiment]).
To further determine significant causal and correlational linkages among DCP dosage, plasma cytokine changes, and relative tumor volume, the following curve fitting analyses were carried out with the 12 DCP+ control mice. First, plotting DCP versus Day 42,43 Relative Tumor Volume yielded a significant quadratic relationship (FIG. 11). Second, curve fitting each cytokine versus Day 42,43 Relative Tumor Volume found no significant linear relationship and only one significant quadratic relationship, i.e., with IL-12 (p=0.004; FIG. 12). Third, plotting DCP versus IL-12 yielded a weakly significant quadratic relationship (p=0.048; FIG. 13).
Substantially more significant analogous plots were generated by first carrying out the Table 8 stepwise regression analysis which derived the DCP antitumor plasma cytokine pattern (DCP/APCP), shown to be a more significant cytokine composite measure than IL-12 taken alone. The Table 8 stepwise regression analysis of the cytokine data from the 12 DCP+ control mice allowed for the calculation of DCP/APCP scores for each mouse. These DCP/APCP scores are plotted versus DCP dosage in […], which illustrates the significant quadratic dose-response relationships of DCP versus the derived plasma DCP/APCP composite measure. From this figure the estimated optimum dosage of DCP for maximum tumor growth inhibition is 42 mg/(kg day), while the estimated optimum dosage for maximum DCP/APCP induction is 44 mg/(kg day).

Experiment [3] relates to MDA-MB-231 human breast tumor xenographs. Briefly: Antitumor efficacy in nude mice with MDA-MB-231 xenographs, 2nd experiment. Format: in vivo, athymic nude mice. To be noted: (1:2) 25, DCP 23 and 69, calcium chloride dihydrate 4.2 mg/kg/day.
Method: In the 2nd experiment, twenty-nine athymic nude, also purchased from Harlan Sprague Dawley, Inc. (Indianapolis, Ind.), were each injected subcutaneously with 10×10^6 MDA-MB-231 cancer cells into the right flank. When tumors reached 3-5 mm in size, the mice were divided into five treatment groups of five each and a control group of four mice. […] All the other mice in the 2nd experiment persisted ≧43 days without complications. Experimental groups were treated by oral gavage once daily with the indicated test suspensions or solutions.
The test system is the same in experiment [4]. Briefly: Antitumor efficacy in nude mice with MDA-MB-231 xenographs, 1st experiment. Format: in vivo, athymic nude (nu/nu) mice. The note with it: 21 mg/kg/day. As to the method:
The aims of the 1st experiment were to determine a dose-response curve for the (1:4 mol:mol) calcium pterin suspension, to compare the antitumor activity of this suspension to pterin alone (pterin control), and to test the effect of CaPterin mega-dosing at 100 mg/kg/day. Antitumor efficacy was evaluated in nude mice with MDA-MB-231 human tumor xenographs by Perry Scientific (San Diego, Calif.). In the 1st experiment, twenty-three athymic nude (nu/nu) female mice, ages 3-4 weeks, were purchased from Harlan Sprague Dawley, Inc. (Indianapolis, Ind.). 5×10^6 MDA-MB-231 cancer cells were injected subcutaneously into the right flank of each mouse. When tumors reached 3-5 mm in size, twenty mice were divided into four treatment/control groups of five mice each. The four treatment groups were: (1:4 mol:mol) calcium pterin (7 mg/kg/day); pterin (21 mg/kg/day); (1:4 mol:mol) calcium pterin (21 mg/kg/day); and sterile water control. Two mice with outlying tumor sizes or non-tumor takes were excluded shortly after treatment began: one from the pterin group and one from the control group. […] Only one outlier persisted >4 days, for 14 days. Also excluded from the metabolic analysis in the 1st experiment was one mouse from each of the four experimental groups mega-dosed by oral gavage with 100 mg/kg/day CaPterin for tip to 31 days to test for toxicity. All the other mice in the 1st experiment persisted ≧60 days without complications.
The control mice in the 1st experiment were treated with sterile water while the control mice in the 2nd experiment were untreated to evaluate the effect of mouse handling and gavaging upon tumor growth. Daily dosing was for 7 days per week. Animals were restrained but not anesthetized for oral dosing. Tumors were measured twice weekly with calipers and body weights taken twice weekly on the day of tumor measurements. Blood was collected from all animals via cardiac puncture at termination (after 70 to 98 days of treatment) and processed to EDTA plasma for analysis. Tumor size measurements for the control group in the 2nd experiment on days 4 and 7 were missed due to a technical oversight.
The MDA-MB-231 human breast tumor cell lines were supplied by SRI International (Menlo Park, Calif.) and propagated using standard in vitro cell expansion methods. Briefly, cells were grown in L-15 media from Gibco (Cat. No. 11415-064) supplemented with 2 mM L-Glutamine and 10% Fetal Bovine Serum (FBS). The cells were cultured in an incubator with 5% CO2, 37.5° C., and 80% humidity. Cells were harvested with 0.25% (w/v) Trypsin-0.03% (w/v) EDTA solution. Cells were prepared for injection by standard methods to appropriate concentrations. Animals were temporarily restrained but not anesthetized for the inoculation of the tumor cells. Animals were subcutaneously injected with the tumor cells in a 100-200 μl volume.
Each animal was individually tracked for tumor growth by external caliper measurements of protruding tumor. Primary tumor sizes were measured using calipers and an approximate tumor volume calculated using the formula 1/2 (a×b^2), where b was the smaller of two perpendicular diameters.
For each group, the mean and standard error of the mean (SEM) of the ratio V/Vo, Relative Tumor Volume (RTV), were plotted as a function of treatment time after inoculation. V0 was the tumor volume at Day 0, when treatment began.

Experiment [5] concerns plasma cytokines. Briefly: Plasma cytokine levels by ELISA (LINCOplex), 1st experiment. Format: in vivo, athymic nude (nu/nu) mice. To be noted: Table 4, 21 mg/kg/d. The protocol: Cytokine levels in EDTA plasma from the mice in the 1st experiment were determined by ELISA assay at Alta Analytical Laboratories (San Diego, Calif.) using a LINCOplex Kit (Linco Research). Tryptophan (Trp) and kynurenine (Kyn) concentrations were measured from EDTA plasma samples by high pressure liquid chromatography (HPLC) using 3-nitro-L-tyrosine as the internal standard (Widner et al., 1997). To estimate IDO activity, the kynurenine to tryptophan ratio (Kyn/Trp) was calculated and expressed as μmol kynurenine/mmol tryptophan (Wirleitner, 2003). The values from five mice in the 1st experiment are not included in the summary statistics given in Table 1 for the following reasons. One mouse from each of the four treatment groups was used to test the effects of mega dosing, i.e., with (1:4 mol:mol) calcium pterin at 100 mg/kg/day after Day 60 of treatment, and are excluded. Also excluded was one mouse from the (1:4 mol:mol) calcium pterin (7 mg/kg/day) group which expired suddenly a few days before blood was collected. Cytokine measurements <3.2 pg/ml are reported as n.d. (not detectable) because the standard curves used in the ELISA assays were not calibrated below that level.
Cytokine levels in EDTA plasma from the mice in the 1st experiment were determined by ELISA assay at Alta Analytical Laboratories (San Diego, Calif.) using a LINCOplex Kit (Linco Research).
Cytokine levels in EDTA plasma from the mice in the 2nd experiment were measured at the UCSD Core Laboratory (San Diego, Calif.) using a multiplex assay kit for IL-1β, IL-2, IL-4, IL-5, IL-10, IL-12, IFN-γ, TNF-α and single ELISA kits for IL-6 and TGF-β1 by R&D Systems. EDTA plasma samples from two of the three ungavaged controls were lost due to handling error. For both the 1st and 2nd experiments, those measured cytokine values falling below the limits of detection were set to the higher assay limit for the purposes of the subsequent statistical analyses, and recorded as n.d. (not detectable) in Tables 1 through 3.

The mark [6] stands for this setting: 2nd experiment, 25 mg/kg/d, limit of detection 3.2.
Setting [7] is: 2nd experiment, CaCl2 group, 4.2 mg/kg/day.
The mark [8] stands for this setting: 2nd experiment, CaCl2 group, 4.2 mg/kg/day, limit of detection 3.2.

Regarding (1:2 mol:mol) calcium pterin, in the experiment with plasma cytokines [1] (2nd experiment, 25 mg/kg/d), the IL-5 was 4.4 ± .9 pg/mL, the IL-6 came to 31.6 ± 9.2 pg/mL, the IL-1β was 4.9 ± .5 pg/mL and the IL-10 stood at 30.2 ± 5.6 pg/mL. For the same compound, in the experiment on plasma cytokines [1] (setting [6]), the IFN-γ was 16.1 ± 12.9 pg/mL and the IL-12 came to 315.2 ± 71.0 pg/mL. Moreover, the “increases in plasma IL-12 (FIG. 10)” value in the experiment with plasma cytokines [1] (at the dosages tested) was “lower, non-significant increases”. Moreover, the “tumor growth inhibition relative to controls (FIG. 9)” value in experiment [2] is reported as “significant tumor growth inhibition”. In addition, the “MDA-MB-231 xenograph growth inhibition” value in experiment [3] was “significantly inhibit”.
`O.O.[Ca+2].[Cl-].[Cl-]` [CaCl2•2H2O, calcium chloride dihydrate, reference compound]: the “plasma IL-12 versus control (FIG. 10)” value with plasma cytokines [1] (4.2 mg/(kg day)) is reported as “significantly elevated”. In the experiment with plasma cytokines [1] (setting [7]), the IL-5 worked out at 10.3 ± 2.4 pg/mL, the IL-6 came to 44.4 ± 15.4 pg/mL, the IL-1β was 6.4 ± .9 pg/mL and the IL-10 turned out to be 26.5 ± 1.9 pg/mL. Besides, in the experiment with plasma cytokines [1] (setting [8]), the IFN-γ amounted to 9.7 ± 3.3 pg/mL, the IL-4 is 3.6 ± .3 pg/mL and the IL-12 came out at 904.9 ± 156.9 pg/mL. The IL-2 with plasma cytokines [1] (2nd experiment, CaCl2 group, 4.2 mg/kg/day, limit of detection 12.6) was 12.7 ± .13 pg/mL. In the experiment with plasma cytokines [1] (2nd experiment, CaCl2 group, 4.2 mg/kg/day, limit of detection 31.2), this compound showed a TGF-β1 of 74.3 ± 35.0 pg/mL. Moreover, the “MDA-MB-231 xenograph growth inhibition” value in experiment [3] is recorded as “significantly inhibit”.
In the case of `Nc1nc2nccnc2c(=O)[nH]1` [Pterin, 2-amino-4(3H)-pteridinone], the “antitumor activity (tumor growth vs control)” value in experiment [4] is “no antitumor activity”. Also, in the experiment with plasma cytokines [5] (limit of detection 3.2), the IL-12 came out at 48.5 ± 45.3 pg/mL and the TNF-α amounted to 9.0 ± 3.7 pg/mL. For the same compound, in the experiment on plasma cytokines [5] (limit of detection 4.1), the IL-1β stood at 64.6 ± 60.4 pg/mL. For the same compound, the IL-6 with plasma cytokines [5] (plasma at sacrifice, limit of detection 3.9) was 87.4 ± 11.0 pg/mL.
